In patent US20240300948A1, “Heterocyclic Compounds As Kinase Inhibitors” (Incyte Corporation, priority 2023, published 2024):

Tests used:
[1] = biological target: T1, pseudo-kinase domain (JH2, amino-acids 536-812 with 3 surface mutations W659A, W777A, F794H) of human V617F mutant JAK2 (Homo sapiens, UniProt O60674, F794H/V617F/W659A/W777A); assay: JAK2 LanthaScreen JH2-V617F binding assay; conditions: 50 nM tracer, 1 hour at 25° C., read-out: JH2 BIND V617F IC50
T1 construct: pseudo-kinase domain (JH2, amino-acids 536-812 with 3 surface mutations W659A, W777A, F794H); His (C); Avi (biotinylated) (C); purchased BPS Bioscience 79498; host or cells: baculovirus expression system
Method: Example C. JAK2 LanthaScreen JH2-V617F Binding Assay
(§1) JAK2 JH2-V617F binding assay utilizes pseudo-kinase domain (JH2, amino-acids 536-812 with 3 surface mutations W659A, W777A, F794H) of human V617F mutant JAK2 expressed as C-terminal His-Avi-tagged, biotinylated protein in a baculovirus expression system (BPS Bioscience, Catalog #79498). The assay was conducted in black 384-well polystyrene plates in a final reaction volume of 20 μL. JAK2 JH2-V617F (0.26 nM) was incubated with compounds (100 nL serially diluted in DMSO) in the presence of 50 nM Fluorescent JAK2-JH2 Tracer (MedChem Express Catalog #HY-102055) and 0.25 nM Streptavidin-Tb cryptate (Cisbio Part #610SATLB) in assay buffer (50 mM Tris, pH=7.5, 10 mM MgCl2, 0.01% Brij-35, 0.1% BSA, 1 mM EGTA, 5% Glycerol and 5 mM DTT). Non-specific binding was accessed in the presence of 2 mM ATP. After incubation for 1 hour at 25° C., LanthaScreen signals were read on a PHERAstar FS plate reader (BMG LABTECH). Data was analyzed with IDBS XLfit and GraphPad Prism 5.0 software using a four parameter dose response curve to determine IC50 for each compound.

[2] = biological target: T2, pseudo-kinase domain (JH2, amino-acids 536-812 with 3 surface mutations W659A, W777A, F794H) of human Wild Type JAK2 (Homo sapiens, UniProt O60674, F794H/W659A/W777A); assay: JAK2 LanthaScreen JH2-WT binding assay; conditions: 50 nM tracer, 1 hour at 25° C., read-out: JH2 BIND WT IC50
T2 construct: pseudo-kinase domain (JH2, amino-acids 536-812 with 3 surface mutations W659A, W777A, F794H); His (C); Avi (biotinylated) (C); purchased BPS Bioscience 79463; host or cells: baculovirus expression system
Method: Example B. JAK2 LanthaScreen JH2-WT Binding Assay
as §1, with “JH2-WT” for “JH2-V617F”, “Wild Type” for “V617F mutant”, “#79463).” for “#79498).”, “JH2-WT (0.145” for “JH2-V617F (0.26”

[3] = biological target: T3, catalytic domain (JH1, amino acids 826-1132) of human JAK2 (Homo sapiens, UniProt O60674); assay: JAK2 LanthaScreen JH1 binding assay; conditions: 50 nM tracer, 2 hours at 25° C., read-out: JH1 BIND IC50
T3 construct: catalytic domain (JH1, amino acids 826-1132) of human JAK2; FLAG (N); purchased Carna Biosciences 08-445-20N; host or cells: baculovirus expression system
Method: Example A. JAK2 LanthaScreen […] Binding Assay
JAK2 JH1 binding assay utilizes catalytic domain (JH1, amino acids 826-1132) of human JAK2 expressed as N-terminal FLAG-tagged, biotinylated protein in a baculovirus expression system (Carna Biosciences, Product #08-445-20N). The assay was conducted in black 384-well polystyrene plates in a final reaction volume of 20 μL. JAK2 JH1 (1.5 nM) was incubated with compounds (100 nL serially diluted in DMSO) in the presence of 50 nM fluorescent JAK2-JH1 tracer and 0.5 nM Streptavidin-Tb cryptate (Cisbio Part #610SATLB) in assay buffer (50 mM Tris, pH=7.5, 10 mM MgCl2, 0.01% Brij-35, 0.1% BSA, 1 mM EGTA, 5% Glycerol and 5 mM DTT). Non-specific binding was accessed in the presence of 2 mM ATP. After incubation for 2 hours at 25° C., LanthaScreen signals were read on a PHERAstar FS plate reader (BMG LABTECH). Data was analyzed with IDBS XLfit and GraphPad Prism 5.0 software using a four parameter dose response curve to determine IC50 for each compound.

T1 sequence (O60674 536-812 V617F/W659A/W777A/F794H): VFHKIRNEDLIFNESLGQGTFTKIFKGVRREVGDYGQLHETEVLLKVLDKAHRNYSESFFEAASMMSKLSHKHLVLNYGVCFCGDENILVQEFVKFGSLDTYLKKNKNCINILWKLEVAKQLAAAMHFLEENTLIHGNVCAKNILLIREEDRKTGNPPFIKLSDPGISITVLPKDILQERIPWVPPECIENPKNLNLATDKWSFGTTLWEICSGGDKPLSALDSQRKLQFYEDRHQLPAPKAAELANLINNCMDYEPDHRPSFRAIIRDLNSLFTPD
T3 sequence (O60674 826-1132): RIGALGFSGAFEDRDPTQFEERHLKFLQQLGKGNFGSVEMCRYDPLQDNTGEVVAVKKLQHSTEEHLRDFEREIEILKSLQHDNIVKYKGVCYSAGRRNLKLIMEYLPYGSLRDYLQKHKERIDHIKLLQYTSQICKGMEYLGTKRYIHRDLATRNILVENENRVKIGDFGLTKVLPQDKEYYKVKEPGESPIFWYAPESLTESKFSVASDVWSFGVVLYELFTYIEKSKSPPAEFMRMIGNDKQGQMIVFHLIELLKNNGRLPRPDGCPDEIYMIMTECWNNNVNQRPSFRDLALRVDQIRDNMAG
T2 sequence (O60674 536-812 W659A/W777A/F794H): as the sequence (O60674 536-812 V617F/W659A/W777A/F794H) above, with F82V counted along it

## COC(=O)N[C@]1(C)CC[C@H](N2C(=O)NCc3cnc4[nH]c(-c5cnn(C)c5)c(-c5ccc6c(cnn6C(C)C)c5)c4c32)CC1 [Example 13, Methyl ((1s,4s)-4-(9-(1-isopropyl-1H-indazol-5-yl)-8-(1-methyl-1H-pyrazol-4-yl)-2-oxo-2,3,4,7-tetrahydro-1H-pyrrolo[3′,2′:5,6]pyrido[4,3-d]pyrimidin-1-yl)-1-methylcyclohexyl)carbamate]
[1]
  IC50: 10 to 100 nM
[2]
  IC50: 10 to 100 nM
[3]
  IC50: > 1000 nM

## CC(C)n1ncc2cc(-c3c(-c4cnn(C)c4)[nH]c4ncc5c(c34)N([C@@H]3CC[C@@H](NC(=O)C4CC4)C3)C(=O)NC5)ccc21 [Example 11, N-((1R,3R)-3-(9-(1-Isopropyl-1H-indazol-5-yl)-8-(1-methyl-1H-pyrazol-4-yl)-2-oxo-2,3,4,7-tetrahydro-1H-pyrrolo[3′,2′:5,6]pyrido[4,3-d]pyrimidin-1-yl)cyclopentyl) cyclopropanecarboxamide]
[1]
  IC50: 10 to 100 nM
[2]
  IC50: 10 to 100 nM
[3]
  IC50: > 1000 nM

## CC(C)n1ncc2cc(-c3c(-c4cnn(C)c4)[nH]c4ncc5c(c34)N([C@H]3CC[C@@H]3NC(=O)NCC(F)F)C(=O)NC5)ccc21 (racemic) [Example 8, N-(2,2-Difluoroethyl)-3-(trans-2-(9-(1-isopropyl-1H-indazol-5-yl)-8-(1-methyl-1H-pyrazol-4-yl)-2-oxo-2,3,4,7-tetrahydro-1H-pyrrolo[3′,2′:5,6]pyrido[4,3-d]pyrimidin-1-yl)cyclobutyl)urea]
[1]
  IC50: 100 to 500 nM
[2]
  IC50: 10 to 100 nM
[3]
  IC50: > 1000 nM

## COC(=O)N[C@H]1C[C@H](N2C(=O)NCc3cnc4[nH]c(-c5ccc(CN6CCOCC6)cc5)c(-c5ccc6c(cnn6C(C)C)c5)c4c32)C1 [Example 33, Methyl ((1r,3r)-3-(9-(1-isopropyl-1H-indazol-5-yl)-8-(4-(morpholinomethyl)phenyl)-2-oxo-2,3,4,7-tetrahydro-1H-pyrrolo[3′,2′:5,6]pyrido[4,3-d]pyrimidin-1-yl)cyclobutyl)carbamate]
[1]
  IC50: ≤ 10 nM
[2]
  IC50: ≤ 10 nM
[3]
  IC50: > 1000 nM

## COC(=O)N[C@H]1C[C@H](N2C(=O)NCc3cnc4[nH]c(-c5cnn(C)c5)c(-c5ccc6c(cnn6C(C)C)c5)c4c32)C1 [Example 1, Methyl ((1r,3r)-3-(9-(1-isopropyl-1H-indazol-5-yl)-8-(1-methyl-1H-pyrazol-4-yl)-2-oxo-2,3,4,7-tetrahydro-1H-pyrrolo[3′,2′:5,6]pyrido[4,3-d]pyrimidin-1-yl)cyclobutyl)carbamate]
[1]
  IC50: ≤ 10 nM
[2]
  IC50: ≤ 10 nM
[3]
  IC50: 100 to 500 nM

## COC(=O)N[C@@H]1CC[C@@H](n2c(=O)ncc3cnc4[nH]c(-c5cnn(C)c5)c(-c5ccc6c(cnn6C)c5)c4c32)C1 [Example 37, Methyl ((1R,3R)-3-(9-(1-methyl-1H-indazol-5-yl)-8-(1-methyl-1H-pyrazol-4-yl)-2-oxo-2,7-dihydro-1H-pyrrolo[3′,2′:5,6]pyrido[4,3-d]pyrimidin-1-yl)cyclopentyl)carbamate]
[1]
  IC50: 100 to 500 nM
[2]
  IC50: 100 to 500 nM
[3]
  IC50: > 1000 nM

## CC(C)n1ncc2cc(-c3c(-c4cnn(C)c4)[nH]c4ncc5c(c34)N([C@H]3C[C@@H](NC(=O)c4nc(C(F)(F)F)cs4)C3)C(=O)NC5)ccc21 [Example 22, N-((1s,3s)-3-(9-(1-isopropyl-1H-indazol-5-yl)-8-(1-methyl-1H-pyrazol-4-yl)-2-oxo-2,3,4,7-tetrahydro-1H-pyrrolo[3′,2′:5,6]pyrido[4,3-d]pyrimidin-1-yl)cyclobutyl)-4-(trifluoromethyl)thiazole-2-carboxamide]
[1]
  IC50: 100 to 500 nM
[2]
  IC50: 100 to 500 nM
[3]
  IC50: > 1000 nM

## CC(C)COC(=O)N[C@@H]1CC[C@@H](N2C(=O)NCc3cnc4[nH]c(-c5cnn(C)c5)c(-c5ccc6c(cnn6C(C)C)c5)c4c32)C1 [Example 12, Isobutyl ((1R,3R)-3-(9-(1-isopropyl-1H-indazol-5-yl)-8-(1-methyl-1H-pyrazol-4-yl)-2-oxo-2,3,4,7-tetrahydro-1H-pyrrolo[3′,2′:5,6]pyrido[4,3-d]pyrimidin-1-yl)cyclopentyl) carbamate]
[1]
  IC50: 10 to 100 nM
[2]
  IC50: 10 to 100 nM
[3]
  IC50: > 1000 nM
